In general, melting point refers to the temperature of the solid-liquid transition. One may read the EC50 as the concentration that produces a half-maximal response.

Here are results for five compounds from patent publication US10253038B2, “Fusicoccane derivatives and methods” (Florida State University Research Foundation, Inc., priority 2017, dated 2019).

In series [1] the target is T1, 14-3-3σ•Task-3 ctp (Homo sapiens, UniProt P31947).
T1 construct: made in house; host or cells: E. coli BL21
As to the kind of experiment: Isothermal titration calorimetry (ITC) of Task-3 ctp with 14-3-3σ in the presence and absence of fusicoccin A. To be noted: 100 μM fusicoccin A vs absence. It counts as binding. The method, then: (§1) Replicated in this example was Ottmann's characterization of interactions between 14-3-3σ and a synthetic hexapeptide of Task-3 containing the putative C-terminal 14-3-3-interaction motif KRRK-pS-V (Task-3 ctp). (Anders, C. et al., Chem. Biol. 2013, 13, 583-593).
(§2) Recombinant human 14-3-3σ was prepared using a bacterial expression protocol, which routinely produced 15 mg/L of purified protein. Recombinant 14-3-3σ was expressed in BL21 E. Coli cells and purified by Ni-affinity chromatography.
This was determined by the association of ITC binding isotherms for Task-3 ctp with 14-3-3σ in the presence and absence of 100 μM of fusicoccin A (1).
For orientation: ITC needs no label: the signal is the heat of the interaction.

Series [2] addresses T2, 14-3-3σ•Task-3 ctp interaction (Homo sapiens, UniProt P31947).
T2 construct: made in house; host or cells: E. coli BL21
As to the kind of experiment: Fluorescence polarization (FP) of fluorescein-labeled Task-3 ctp titrated with 14-3-3σ. It counts as binding. To be noted: for screen for functional interaction with 14-3-3σ•Task-3 ctp complex (result in words): library screen of 8a-j, 9-11, FIG. 3. The method, then: as §1, §2
The titration protocol was adapted to 96-well plate format using fluorescence polarization (FP) experiments. FP measurements of fluorescein-labeled Task-3 ctp, in the absence and presence of 100 μM fusicoccin A (1), titrated with 14-3-3σ were used to obtain the apparent Kd of the 14-3-3σ•Task-3 ctp interaction. […] Also collected were FP measurements of fluorescein-labeled c-Raf peptide, in the absence and presence of 100 μM fusicoccin A (1), titrated with 14-3-3σ to obtain the apparent Kd of the 14-3-3σ•c-Raf peptide interaction.
Error bars indicate the mean±SD of three independent experiments.
In view of the foregoing control data, a library of synthetic derivatives, including 8a-j, 9-11, was screened for functional interactions 14-3-3σ•Task-3 ctp complex. […]
On the technique in general: Polarisation of emitted light reports the rotation of a fluorescent probe.

Series [3] has as its system 14-3-3•PMA2 complex. Particulars: background statement; cited from earlier work.

T2 sequence (P31947 whole entry, other chains not shown): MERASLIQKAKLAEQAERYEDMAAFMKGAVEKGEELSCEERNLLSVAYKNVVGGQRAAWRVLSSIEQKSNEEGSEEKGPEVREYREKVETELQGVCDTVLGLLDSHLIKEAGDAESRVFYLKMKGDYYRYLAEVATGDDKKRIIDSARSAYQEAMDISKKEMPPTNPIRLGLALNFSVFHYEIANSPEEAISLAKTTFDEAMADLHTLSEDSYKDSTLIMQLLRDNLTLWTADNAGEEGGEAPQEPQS
T1 sequence (P31947 whole entry, other chains not shown): as above

As for `O=C1CCC2=C1[C@H]1C=C[C@]3(CCC[C@H]3C2)O1` (racemic) [compound 8a, (±)-1,2,3,6,8,9,10,10a-octahydro-7H-3a,6-epoxydicyclopenta[a,d] [8]annulen-7-one], the melting point is 50.8 to 51.3 °C.

Consider `C=CC(C)(C)OC[C@H]1O[C@H](O[C@@H]2C3=C([C@H](C)COC(C)=O)C[C@H](O)[C@]3(C)/C=C3/[C@@H](COC)CC[C@H]3[C@@H](C)[C@H]2O)[C@H](O)[C@@H](OC(C)=O)[C@@H]1O` [fusicoccin A, reference compound], for which the “fold stabilization of 14-3-3σ•Task-3 ctp” value in series [1] was found to be 152 fold. Also, the “fold enhancement of apparent affinity of Task-3 ctp to 14-3-3σ” value (“fold enhancement” below) in series [2] (FP, 100 μM fusicoccin A) was 37 fold. In addition, the EC50 in series [2] (FP, fluorescein-labeled Task-3 ctp and 14-3-3σ titrated with compound, mean±SD of three experiments, read-out: EC50 of stabilization of the 14-3-3σ•Task-3 ctp complex) turned out to be 1400 ± 300 nM. In addition, in series [3], the “prolongation of the lifetime of the 14-3-3•PMA2 complex” value is 90 fold.

Compound `CC1CC(=O)C2C3C=CC4(CCCC4CC12)O3` (racemic) [compound 9, (±)-9-Methyl-1,2,3,6,6a,8,9,9a, 10,10a-decahydro-7H-3a,6-epoxydicyclopenta[a,d] [8]annulen-7-one] yielded a melting point of 88.9 to 91.3 °C.

On to `O=C1CCC2=C1[C@@]1(CN3CCOCC3)C=C[C@]3(CCC[C@H]3C2)O1` [compound 8f], for which the “fold enhancement” value in series [2] (FP, DMSO (10%) in buffer, 6.3 mM compound) worked out at 1.1 fold. In series [2], the “screen for functional interaction with 14-3-3σ•Task-3 ctp complex (result in words)” value is “increase the apparent affinity”.

Take `C=C(C)C1=C2[C@H]3C=C[C@]4(CCC[C@H]4C[C@@]2(C)CC1)O3` (racemic) [compound 11]: in series [2] (FP, DMSO (10%) in buffer, 1.6 mM compound), the “fold enhancement” value amounted to 1.2 fold. Besides, the “screen for functional interaction with 14-3-3σ•Task-3 ctp complex (result in words)” value in series [2] was “increase the apparent affinity”.
